Format in all cases: functional
The species named for test [1] is Felis catus. The test is described as follows: Tested for inhibitory activity against postganglionic cardioaccelerator nerve relative to apomorphine.
The species named for test [2] is Felis catus. Nature of the test: Tested for inhibition of postganglionic cardioaccelerator nerve in the cat. Conditions: for ED50: Felis catus, read-out: ID50 (the source's name).
Test [3] deals with Felis catus. The test is described as follows: Percent reduction in blood pressure after iv administration of 1 umol/kg of compound in anesthetized cat.
Test [4] relates to Felis catus. Nature of the test: Percent reduction in heart rate after iv administration of 1 umol/kg of compound in anesthetized cats.

Regarding `CN1CCc2cccc3c2[C@H]1Cc1ccc(O)c(O)c1-3` [APOMORPHINE], the Relative activity in the test filed under Felis catus [1] is listed as 1. In the test filed under Felis catus [2], the ED50 is 0.024 µmol/kg.
As for `Br.CCN1CC[C@H]2CCc3cc(O)c(O)cc3[C@H]2C1`, the results for the Reduction with Felis catus [3] and with Felis catus [4] were 18.5% and 4.3 beats min-1, respectively. Also, in the test listed under Felis catus [1], the Relative activity is listed as 0.025. Further, the ED50 in the test listed under Felis catus [2] was determined as 0.81 µmol/kg.
For the compound `Br.Oc1cc2c(cc1O)C1CNCCC1CC2` (stereo in doubt; 21), the Reduction in the test with Felis catus [3] was 27.9%; in the test on Felis catus [4], 13.6 beats min-1. This compound showed a Relative activity in the test filed under Felis catus [1] of 0.073. In the test filed under Felis catus [2], this compound came in with an ID50 of 0.31 µM/kg.
Regarding `Br.CN1CCC2CCc3cc(O)c(O)cc3C2C1` (trans isomer), the Reduction in the test with Felis catus [3] is on record as 14.6%; in the test on Felis catus [4], 3.2 beats min-1. The Relative activity in the test listed under Felis catus [1] is given as 0.038. The ED50 in the test filed under Felis catus [2] turned out to be 0.52 µmol/kg.
With `Br.CCCN1CC[C@H]2CCc3cc(O)c(O)cc3[C@@H]2C1` (relative stereo), the Reduction with Felis catus [3] is on record as 13.3%; in the test on Felis catus [4], 3 beats min-1. In the test filed under Felis catus [1], the Relative activity worked out at 0.026. In addition, the ED50 in the test listed under Felis catus [2] came to 0.8 µmol/kg.
The matching figures for `Br.CCCN1CC[C@H]2CCc3cc(O)c(O)cc3[C@H]2C1` (relative stereo): 31.7%, 22.6 beats min-1, 0.02 and 0.9 µmol/kg.
In the case of `Br.Oc1cc2c(cc1O)C1CNCCC1CC2` (trans isomer), the values for the Reduction in the test on Felis catus [3] and in the test on Felis catus [4] were 21.9% and 49 beats min-1, respectively. The compound further showed a Relative activity in the test filed under Felis catus [1] of 0.27. This compound gave an ID50 in the test filed under Felis catus [2] of 0.8 µM/kg.

For the origin of these results see ChEMBL document CHEMBL1121576, “Congeners of the alpha conformer of dopamine derived from octahydrobenz[h]isoquinoline” (1980).
